# Laboratory results as given in ChEMBL document CHEMBL1137113, “A convenient and biogenetic type synthesis of few naturally occurring chromeno dihydrochalcones and their in vitro antileishmanial activity” (2004).
# The source made the active and inactive calls. The rule behind the calls is not given here.
# Columns and labels:
# [1] = system: Leishmania donovani; assay: In-vitro antileishmanial activity was tested against intracellular amastigotes of Leishmania donovani at dose 50 ug/mL; assay type: functional
# [2] = system: Leishmania donovani; assay: In-vitro antileishmanial activity was tested against extracellular promastigotes of Leishmania donovani at dose of 50 ug/mL; assay type: functional
# [3] = system: Leishmania donovani; assay: In-vitro antileishmanial activity was tested against intracellular amastigotes of Leishmania donovani at dose 50 ug/mL; Toxic; assay type: functional, organism-based
# [4] = system: Leishmania donovani; assay: In-vitro antileishmanial activity was tested against intracellular amastigotes of Leishmania donovani at dose 50 ug/mL; IA is inactive; assay type: functional, organism-based
# [5] = system: Leishmania donovani; assay: In-vitro antileishmanial activity was tested against extracellular promastigotes of Leishmania donovani at dose of 50 ug/mL; IA is inactive; assay type: functional, organism-based
# [6] = system: Leishmania donovani; assay: In-vitro antileishmanial activity was tested against extracellular promastigotes of Leishmania donovani at dose of 5 ug/mL; assay type: functional
# [7] = system: Leishmania donovani; assay: In-vitro antileishmanial activity was tested against intracellular amastigotes of Leishmania donovani at dose 5 ug/mL; assay type: functional
Compound,inhibition at 50 µg/mL [1] [%],inhibition at 50 µg/mL [2] [%],other results
COc1ccc(CCC(=O)c2ccc3c(c2O)C=CC(C)(C)O3)cc1,47,78,–
CC1(C)C=Cc2c(ccc(C(=O)CCc3ccc(O)cc3)c2O)O1,–,89,inhibition [3]: Toxic
CC1(C)C=Cc2c(ccc(C(=O)CCc3ccc(O)c(O)c3)c2O)O1,–,30,inhibition [4]: inactive
CC1(C)C=Cc2c(ccc(C(=O)/C=C/c3ccc(O)cc3)c2O)O1,74,84,–
COc1ccc(/C=C/C(=O)c2ccc(O)cc2O)cc1,15,60,–
COc1ccc(CCC(=O)c2ccc3c(c2O)C=CC(C)(C)O3)cc1OC,22,–,inhibition [5]: inactive
Stibanate,–,–,inhibition [1]: 85%; inhibition [5]: inactive
COc1ccc(CCC(=O)c2ccc(O)cc2O)cc1OC,–,79,inhibition [3]: Toxic
N=C(N)c1ccc(OCCCCCOc2ccc(C(=N)N)cc2)cc1 [PENTAMIDINE],–,–,inhibition at 5 µg/mL [6]: 97%; inhibition at 5 µg/mL [7]: 50%
COc1ccc(/C=C/C(=O)c2ccc3c(c2O)C=CC(C)(C)O3)cc1,53,85,–
